This test has as its target T1, APOL1 (Homo sapiens, UniProt O14791).
T1 sequence (O14791 1-398 S342G/I384M): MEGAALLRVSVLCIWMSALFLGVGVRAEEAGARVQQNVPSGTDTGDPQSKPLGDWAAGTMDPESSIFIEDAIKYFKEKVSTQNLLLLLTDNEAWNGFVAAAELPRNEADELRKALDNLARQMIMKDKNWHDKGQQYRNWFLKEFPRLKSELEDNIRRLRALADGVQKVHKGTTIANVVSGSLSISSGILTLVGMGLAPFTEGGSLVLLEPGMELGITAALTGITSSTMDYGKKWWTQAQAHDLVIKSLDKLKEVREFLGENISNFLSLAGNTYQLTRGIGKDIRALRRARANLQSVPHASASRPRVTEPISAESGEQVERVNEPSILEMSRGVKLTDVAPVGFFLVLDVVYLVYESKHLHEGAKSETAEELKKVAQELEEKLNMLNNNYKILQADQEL
The experiment in a line: MultiTox-Fluor Multiplex Cytotoxicity Assay in tet-inducible APOL1 T-REx-HEK293 cells (cell rescue, ratio of dead to live cells). In kind it is cell-based. To be noted: tet-inducible transgenic APOL1 T-REx-HEK293 cell lines, 50 ng/mL tet, 24 hours; read-out: IP50 (i.e., IC50 for cell proliferation). Summed up:
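T-REx-HEK293 cells with tet-inducible APOL1 were treated with compound (10 μM top, 10-point 3-fold dilution, duplicate) plus 50 ng/mL tetracycline for 24 h at 37° C, in DMEM with 2% tet-free FBS. MultiTox-Fluor protease signals gave a dead/live ratio, normalized to no tet (100% viability) and tet alone (0%).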

Structures are written as SMILES.

On to `C[C@H]1C[C@]2(CCN1Cc1cn(CCS(C)(=O)=O)nn1)OCCc1cc(Cl)sc12` [Compound 695, (2′S,7S)-2-chloro-2′-methyl-1′-[[1-(2-methylsulfonylethyl)triazol-4-yl]methyl]spiro[4,5-dihydrothieno[2,3-c]pyran-7,4′-piperidine]], for which the IC50 was in the range of 500 to 1000 nM. To `C[C@H]1C[C@@]2(CCN1Cc1cn(CCS(C)(=O)=O)nn1)OCCc1cc(Cl)sc12` [Compound 696, (2′S, 7R)-2-chloro-2′-methyl-1′-[[1-(2-methylsulfonylethyl)triazol-4-yl]methyl]spiro[4,5-dihydrothieno[2,3-c]pyran-7,4-piperidine]] belongs 100 to 500 nM.

As to `C[C@H]1C[C@@]2(CCN1Cc1cnn(CCS(C)(=O)=O)c1)OCCc1cc(Cl)sc12` [Compound 697, (2′S, 7R)-2-chloro-2′-methyl-1′-[[1-(2-methylsulfonylethyl)pyrazol-4-yl]methyl]spiro[4,5-dihydrothieno[2,3-c]pyran-7,4′-piperidine]], the IC50 is under 100 nM. To `C[C@H]1C[C@@]2(CCN1Cc1cn[nH]c1)OCCc1cc(Cl)sc12` [Compound 698, (2′S, 7R)-2-chloro-2′-methyl-1′-(1H-pyrazol-4-ylmethyl)spiro[4,5-dihydrothieno[2,3-c]pyran-7,4′-piperidine]] belongs under 100 nM. As for `COCCn1cc(CN2CC[C@]3(C[C@@H]2C)OCCc2cc(Cl)sc23)cn1` [Compound 699, (2S,7R)-2′-chloro-1-((1-(2-methoxyethyl)-1H-pyrazol-4-yl)methyl)-2-methyl-4′,5′-dihydrospiro[piperidine-4,7′-thieno[2,3-c]pyran]], the IC50 was under 100 nM.

Consider `C[C@H]1C[C@@]2(CCN1Cc1cnn(CC(=O)N(C)C)c1)OCCc1cc(Cl)sc12` [Compound 700], for which the IC50 was under 100 nM.

Consider `C[C@H]1C[C@@]2(CCN1Cc1cnn(Cc3cccnc3)c1)OCCc1cc(Cl)sc12` [Compound 701], for which the IC50 is under 100 nM. On to `CCn1cc(CN2CC[C@]3(C[C@@H]2C)OCCc2cc(Cl)sc23)cn1` [Compound 702], for which the IC50 was under 100 nM. Turning to `CNC(=O)Cn1cc(CN2CC[C@]3(C[C@@H]2C)OCCc2cc(Cl)sc23)cn1` [Compound 703], the IC50 was under 100 nM. For the compound `CC(C)Cn1cc(CN2CC[C@]3(C[C@@H]2C)OCCc2cc(Cl)sc23)cn1` [Compound 704], the IC50 lay in the range of 100 to 500 nM. With `C[C@H]1C[C@@]2(CCN1Cc1cnn(CC(N)=O)c1)OCCc1cc(Cl)sc12` [Compound 705], the IC50 lay in the range of 100 to 500 nM. Turning to `C[C@H]1C[C@@]2(CCN1Cc1cnn(CC3CCOCC3)c1)OCCc1cc(Cl)sc12` [Compound 706], the IC50 was under 100 nM. `C[C@H]1C[C@@]2(CCN1Cc1cnn(Cc3ccc(F)cc3)c1)OCCc1cc(Cl)sc12` [Compound 707]: the IC50 is under 100 nM. With `C[C@H]1C[C@@]2(CCN1C[C@H](O)C(N)=O)OCCc1cc(Cl)sc12` [Compound 708, (2S)-3-[(2′S, 7R)-2-chloro-2′-methyl-spiro[4,5-dihydrothieno[2,3-c]pyran-7,4′-piperidine]-1′-yl]-2-hydroxy-propanamide], the IC50 was 100 to 500 nM.

With `C[C@H]1C[C@@]2(CCN1C[C@@H](O)C(N)=O)OCCc1cc(Cl)sc12` [Compound 709, (2R)-3-[(2′S, 7R)-2-chloro-2′-methyl-spiro[4,5-dihydrothieno[2,3-c]pyran-7,4′-piperidine]-1′-yl]-2-hydroxy-propanamide], the IC50 lay within 100 to 500 nM.

Take `CNC(=O)[C@@H](O)CN1CC[C@]2(C[C@@H]1C)OCCc1cc(Cl)sc12` [Compound 710, (2S)-3-[(2′S, 7R)-2-chloro-2′-methyl-spiro[4,5-dihydrothieno[2,3-c]pyran-7,4′-piperidine]-1′-yl]-2-hydroxy-N-methyl-propanamide]: the IC50 fell in the range of 500 to 1000 nM.

Turning to `C[C@H]1C[C@@]2(CCN1C[C@H](O)C(=O)N(C)C)OCCc1cc(Cl)sc12` [Compound 711, (2S)-3-[(2′S, 7R)-2-chloro-2′-methyl-spiro[4,5-dihydrothieno[2,3-c]pyran-7,4′-piperidine]-1′-yl]-2-hydroxy-N,N-dimethyl-propanamide], the IC50 was in the range of 100 to 500 nM.

`C[C@H]1C[C@@]2(CCN1Cc1cccc(Cl)c1O)OCCc1c2sc(Cl)c1CO` [Compound 712, 2-chloro-6-[[(2′S, 7R)-2-chloro-3-(hydroxymethyl)-2′-methyl-spiro[4,5-dihydrothieno[2,3-c]pyran-7,4′-piperidine]-1′-yl]methyl]phenol]: the IC50 lay in the range of 500 to 1000 nM. Consider `C[C@H]1C[C@@]2(CCN1Cc1ccccc1F)OCCc1c2sc(Cl)c1CO` [Compound 713], for which the IC50 lay within 100 to 500 nM. On to `C[C@H]1C[C@@]2(CCN1Cc1ccc(N3CCCC3=O)cc1)OCCc1c2sc(Cl)c1CO` [Compound 714], for which the IC50 was under 100 nM.

Regarding `C[C@H]1C[C@@]2(CCN1Cc1ccc(OCCO)cc1)OCCc1c2sc(Cl)c1CO` [Compound 715], the IC50 is under 100 nM. In the case of `COc1cc(OCC(N)=O)ccc1CN1CC[C@]2(C[C@@H]1C)OCCc1c2sc(Cl)c1CO` [Compound 716], the IC50 lay in the range of 100 to 500 nM. The value for `Cc1nccn1-c1ccc(CN2CC[C@]3(C[C@@H]2C)OCCc2c3sc(Cl)c2CO)cc1` [Compound 717] was 100 to 500 nM.

For `C[C@H]1C[C@@]2(CCN1Cc1cccc(OCC(N)=O)c1)OCCc1c2sc(Cl)c1CO` [Compound 718], the IC50 is 100 to 500 nM. For `C[C@H]1C[C@@]2(CCN1Cc1cn(C)nn1)OCCc1c2sc(Cl)c1CO` [Compound 719], the IC50 was in the range of 100 to 500 nM. On to `COc1cnc(CN2CC[C@]3(C[C@@H]2C)OCCc2c3sc(Cl)c2CO)cn1` [Compound 720], for which the IC50 lay within 100 to 500 nM. With `C[C@H]1C[C@@]2(CCN1CCCn1cccn1)OCCc1c2sc(Cl)c1CO` [Compound 721], the IC50 fell in the range of 500 to 1000 nM. Regarding `Cc1cncc(CN2CC[C@]3(C[C@@H]2C)OCCc2c3sc(Cl)c2CO)c1` [Compound 723], the IC50 was in the range of 100 to 500 nM. Take `C[C@H]1C[C@@]2(CCN1Cc1cccc(OCCO)c1)OCCc1c2sc(Cl)c1CO` [Compound 725]: the IC50 fell in the range of 100 to 500 nM. To `C[C@H]1C[C@@]2(CCN1Cc1ccc(F)cn1)OCCc1c2sc(Cl)c1CO` [Compound 726] belongs 500 to 1000 nM; to `COc1cncc(CN2CC[C@]3(C[C@@H]2C)OCCc2c3sc(Cl)c2CO)c1` [Compound 727], 100 to 500 nM. On to `C[C@H]1C[C@@]2(CCN1Cc1cnc(N3CCOCC3)nc1)OCCc1c2sc(Cl)c1CO` [Compound 728], for which the IC50 is under 100 nM. Consider `COc1ncc(CN2CC[C@]3(C[C@@H]2C)OCCc2c3sc(Cl)c2CO)cn1` [Compound 729], for which the IC50 is under 100 nM.

For the compound `CNC(=O)c1cccc(CN2CC[C@]3(C[C@@H]2C)OCCc2c3sc(Cl)c2CO)c1` [Compound 730], the IC50 lay in the range of 100 to 500 nM. As for `Cc1cncc(N2CCC(CN3CC[C@]4(C[C@@H]3C)OCCc3c4sc(Cl)c3CO)CC2)n1` [Compound 731], the IC50 is 500 to 1000 nM. With `Cc1ccc(CN2CC[C@]3(C[C@@H]2C)OCCc2c3sc(Cl)c2CO)c(C)n1` [Compound 732], the IC50 fell in the range of 500 to 1000 nM. As for `CCc1ncc(CN2CC[C@]3(C[C@@H]2C)OCCc2c3sc(Cl)c2CO)cn1` [Compound 733], the IC50 is 100 to 500 nM. For `C[C@H]1C[C@@]2(CCN1Cc1ccc(S(C)(=O)=O)nc1)OCCc1c2sc(Cl)c1CO` [Compound 734], the IC50 lay within 100 to 500 nM. For the compound `C[C@H]1C[C@@]2(CCN1Cc1ccncc1F)OCCc1c2sc(Cl)c1CO` [Compound 735], the IC50 fell in the range of 500 to 1000 nM. As for `Cc1ncccc1CN1CC[C@]2(C[C@@H]1C)OCCc1c2sc(Cl)c1CO` [Compound 736], the IC50 was in the range of 500 to 1000 nM. On to `C[C@H]1C[C@@]2(CCN1Cc1cnccn1)OCCc1c2sc(Cl)c1CO` [Compound 737], for which the IC50 is 500 to 1000 nM.

Regarding `Cc1ncc(CN2CC[C@]3(C[C@@H]2C)OCCc2c3sc(Cl)c2CO)cn1` [Compound 738], the IC50 fell in the range of 100 to 500 nM.

With `Cc1cccc(CN2CC[C@]3(C[C@@H]2C)OCCc2c3sc(Cl)c2CO)n1` [Compound 739], the IC50 was in the range of 500 to 1000 nM.

For `C[C@H]1C[C@@]2(CCN1Cc1ncn3ccccc13)OCCc1c2sc(Cl)c1CO` [Compound 740], the IC50 is 500 to 1000 nM. The value for `COc1cc(CN2CC[C@]3(C[C@@H]2C)OCCc2c3sc(Cl)c2CO)ccc1OCC(N)=O` [Compound 742] was under 100 nM; that for `C[C@H]1C[C@@]2(CCN1Cc1ccc(C(=O)N(C)C)cc1)OCCc1c2sc(Cl)c1CO` [Compound 743] was 100 to 500 nM. Take `COc1ccc(CN2CC[C@]3(C[C@@H]2C)OCCc2c3sc(Cl)c2CO)cc1OCC(N)=O` [Compound 744]: the IC50 was under 100 nM.

For `COCCc1ncc(CN2CC[C@]3(C[C@@H]2C)OCCc2c3sc(Cl)c2CO)cn1` [Compound 745], the IC50 was in the range of 100 to 500 nM. Turning to `C[C@H]1C[C@@]2(CCN1CC1(C)COC1)OCCc1c2sc(Cl)c1CO` [Compound 746], the IC50 lay in the range of 500 to 1000 nM.

`C[C@H]1C[C@@]2(CCN1CC1CCN(S(C)(=O)=O)CC1)OCCc1c2sc(Cl)c1CO` [Compound 748]: the IC50 was in the range of 100 to 500 nM.

Regarding `C[C@H]1C[C@@]2(CCN1Cc1cnn(CCS(C)(=O)=O)c1)OCCc1c2sc(Cl)c1CO` [Compound 754], the IC50 is under 100 nM. With `C[C@H]1C[C@@]2(CCN1Cc1ccc(F)cc1)OCCc1c2sc(Cl)c1CO` [Compound 755], the IC50 was in the range of 100 to 500 nM.

On to `C[C@H]1C[C@@]2(CCN1Cc1cccc(F)c1)OCCc1c2sc(Cl)c1CO` [Compound 756], for which the IC50 was 100 to 500 nM.

These data come from patent US20250171459A1, “2-METHYL-4',5'-DIHYDROSPIRO[PIPERIDINE-4,7'-THIENO[2,3-C]PYRAN] DERIVATIVES AS INHIBITORS OF APOL1 AND METHODS OF USING SAME” (Vertex Pharmaceuticals Incorporated, priority 2022, published 2025).
